The conditions of data set [1]: Liquid; for mass density: 293.1 K, 101.33 kPa, Vibrating tube method; for Normal boiling temperature: Fisher boiling point apparatus.
The nature of data set [2]: refractive index (Na D-line) (dimensionless). As to conditions: 293.1 K; 101.33 kPa; Liquid; Standard Abbe refractometry.

± gives the expanded uncertainty stated by the source.

Turning to `CCOC(=O)CCC(=O)OCC` [diethyl butanedioate], in data set [1], the mass density worked out at 1040.22 ± 0.27 kg/m3 and the Normal boiling temperature worked out at 217.70 ± 0.2 °C. In addition, the refractive index in data set [2] was 1.42014 ± 0.0007.
In the case of `CCOC(=O)CCCCC(=O)OCC` [diethyl hexanedioate], in data set [1], the mass density amounted to 1007.63 ± 0.24 kg/m3 and the Normal boiling temperature turned out to be 245.20 ± 0.2 °C. Further, in data set [2], the refractive index was 1.42725 ± 0.0007.
Take `CC(=O)O` [acetic acid]: in data set [1], the mass density came to 1044.3 ± 0.27 kg/m3 and the Normal boiling temperature was determined as 118.00 ± 0.2 °C. The refractive index in data set [2] is recorded as 1.37201 ± 0.0007.
For `CCOC(=O)CCCC(=O)OCC` [diethyl glutarate], in that order: 1022.04 ± 0.88 kg/m3, 236.50 ± 0.2 °C and 1.42414 ± 0.00078.

Values taken from the NIST ThermoML archive (doi:10.1021/je7000733).
